Laboratory results from PubChem BioAssay (NCI).
“And” between values parts separate entries of the source, which are not always exact repeats. Identical values can stand only once.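 Dose response: 5 concentrations. Exposure: 48 h. Format: 96-well plates. Endpoint: linear interpolation; highest concentration if not reached. GI50: concentration for 50% inhibition of growth. TGI is the concentration that stops growth completely.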

Key:
Experiment in all cases: NCI-60 cell line screen, 48 h
[1] = test system: A498 renal
[2] = test system: SR leukemia
[3] = test system: MDA-MB-231 breast
[4] = test system: ACHN renal
[5] = test system: DU-145 prostate
[6] = test system: SNB-19 CNS
[7] = test system: UACC-62 melanoma
[8] = test system: HCT-116 colon
[9] = test system: PC-3 prostate
[10] = test system: SW-620 colon

Compound	GI50 [1]	TGI [1]	GI50 [2]	TGI [2]	GI50 [3]	TGI [3]	GI50 [4]	TGI [4]	GI50 [5]	TGI [5]	GI50 [6]	TGI [6]	GI50 [7]	TGI [7]	GI50 [8]	TGI [8]	GI50 [9]	TGI [9]	GI50 [10]	TGI [10]
CN1CC[C@@H](c2c(O)cc(O)c3c(=O)cc(-c4ccccc4Cl)oc23)[C@@H]1CO	0.215 µM	0.553 µM	0.107 µM	0.573 µM	0.292 µM	> 10 µM	0.294 µM	> 10 µM	0.365 µM	> 10 µM	0.344 µM	> 10 µM	0.184 µM	0.578 µM	0.2 µM	> 10 µM	0.314 µM	3.64 µM	0.276 µM	> 10 µM
C=C1C(=O)OC2/C=C(/C)C(OC(C)=O)CC(O)/C(C)=C\C(OC(=O)/C(C)=C\C)C12 (configuration not stated)	–	> 100 µM	–	> 100 µM	–	> 100 µM	–	> 100 µM	–	> 100 µM	–	> 100 µM	–	> 100 µM	–	35.6 µM	–	> 100 µM	–	67.6 µM
COc1ccc(C(=O)c2cc3c(N)c(C(=O)Nc4cccc5ccccc45)sc3nc2C)cc1	0.119 µM	0.764 µM	0.161 µM	> 50 µM	0.271 µM	> 50 µM	0.364 µM	> 50 µM	0.19 µM	> 50 µM	0.208 µM	> 50 µM	0.285 µM	> 50 µM	0.18 µM	> 18.9 µM	0.212 µM	> 50 µM	0.203 µM	> 50 µM
N#Cc1c(-c2ccc(Cl)cc2)c2c(n(C3OC(CO)C(O)C(O)C3O)c1=S)CCC2 (configuration not stated)	–	–	–	> 100 µM	–	> 100 µM	–	> 100 µM	–	> 100 µM	–	71 µM	–	34 µM	–	98.4 µM	–	> 100 µM	–	58.4 µM
Cc1ccc(CNc2c3ccccc3nc3cc(NC(=O)CCN4CCCC4)ccc23)cc1	1.13 µM	2.38 µM	0.301 µM	1.82 µM	0.602 µM	1.98 µM	0.541 µM	1.74 µM	0.516 µM	1.66 µM	0.624 µM	1.92 µM	1.4 µM	2.74 µM	0.39 µM	1.42 µM	0.515 µM	1.83 µM	0.413 µM	1.58 µM
Nc1[nH]nc2nc(-c3cccs3)cc(C(F)(F)F)c12	> 23.7 µM	> 25 µM	> 13.7 µM	> 25 µM	> 25 µM	> 25 µM	> 21.6 µM	> 25 µM	> 25 µM	> 25 µM	> 25 µM	> 25 µM	> 25 µM	> 25 µM	> 17.9 µM	> 25 µM	> 25 µM	> 25 µM	> 25 µM	> 25 µM
COc1c(Cl)cc(NC(=S)C#N)cc1Cl	–	44.5 µM	–	> 92.2 µM	–	36.1 µM	–	> 80.1 µM	–	> 100 µM	–	> 100 µM	–	30.8 µM	–	31.6 µM	–	> 100 µM	–	> 100 µM
CC1=C(CO)C(=O)O[C@@H]([C@@H](C)[C@H]2CC[C@H]3[C@@H]4C[C@@H](O)[C@@]5(O)CC=CC(=O)[C@]5(C)[C@H]4CC[C@]23C)C1	–	39.5 µM	–	–	–	> 100 µM	–	75.2 µM	–	> 100 µM	–	> 100 µM	–	> 100 µM	–	55.5 µM	–	> 100 µM	–	47.4 µM
NC(=O)c1c(NC(=O)c2ccc3c(c2)OCO3)sc2c1CCC(=O)C2	–	–	0.372 µM	> 100 µM	2.44 µM	6.89 µM	1.51 µM	5.11 µM	4.5 µM	> 100 µM	2.17 µM	> 100 µM	–	–	–	–	0.313 µM	> 100 µM	–	–
COc1cc(/C=C2\Sc3scc(-c4cccc([N+](=O)[O-])c4)[n+]3C2=O)cc(OC)c1OC	–	> 100 µM	–	5.11 µM	–	25.2 µM	–	28.1 µM	–	30.2 µM	–	46.5 µM	–	24.2 µM	–	26.4 µM	–	86.3 µM	–	23 µM
CC(C)(O)CC(=O)NCCn1ccc2ncnc(Nc3ccc(Oc4cccc(C(F)(F)F)c4)c(Cl)c3)c21	2.9 µM	> 10 µM	2.14 µM	> 10 µM	4.53 µM	> 10 µM	1.15 µM	> 10 µM	2.96 µM	> 10 µM	3.91 µM	> 10 µM	2.96 µM	> 10 µM	2.92 µM	> 10 µM	3.46 µM	> 10 µM	3.32 µM	> 10 µM
C=C1C(=O)OC2C1C(OC(=O)/C(C)=C/C)CC(O)(CCl)C1C(O)C3OC3(C)C21O (configuration not stated)	–	> 50 µM	–	> 50 µM	–	> 50 µM	–	> 50 µM	–	> 50 µM	–	> 50 µM	–	> 50 µM	–	23.7 µM	–	> 50 µM	–	34.1 µM
COc1ccc2c(c1)C(=O)c1c-2c(N(C)C)nc2ccccc12	> 100 µM	> 100 µM	–	–	77 µM	> 100 µM	> 100 µM	> 100 µM	> 100 µM	> 100 µM	> 100 µM	> 100 µM	> 100 µM	> 100 µM	> 100 µM	> 100 µM	> 100 µM	> 100 µM	> 100 µM	> 100 µM
COc1ccc(/C=C2\CCCC3=C2NC(N)=NC3c2ccc(OC)c(OC)c2)cc1OC (configuration not stated)	13.1 µM	> 82.6 µM	0.915 µM	22.6 µM	13.2 µM	> 100 µM	4.14 µM	> 76.2 µM	4.98 µM	> 100 µM	> 88.7 µM	> 100 µM	10.9 µM	> 100 µM	1.28 µM	8.64 µM	20.4 µM	> 100 µM	4.58 µM	> 50.3 µM
CCc1ccc(NC(=O)COC(=O)c2cc([N+](=O)[O-])ccc2Sc2nnnn2C)cc1	21.5 µM	74.9 µM	4.05 µM	> 100 µM	23.6 µM	> 100 µM	14.2 µM	33.1 µM	4.9 µM	28.2 µM	16.5 µM	52.1 µM	15.2 µM	48 µM	6.76 µM	20.2 µM	15.2 µM	84.5 µM	10.9 µM	31.5 µM
O=[N+]([O-])c1cccc([As]=[As]c2cccc([N+](=O)[O-])c2)c1 (configuration not stated)	0.0835 µM	0.231 µM	0.0275 µM	0.1 µM	0.0776 µM	0.212 µM	0.111 µM	0.242 µM	0.163 µM	0.309 µM	0.145 µM	0.279 µM	0.0885 µM	0.212 µM	0.0627 µM	0.181 µM	0.147 µM	0.297 µM	0.046 µM	0.195 µM
COC(=O)c1cc2ccc(OC(C)=O)c(OC(C)=O)c2cn1	–	48.7 µM	–	6.98 µM	17.7 µM	7.12 µM and 42.9 µM	–	31.5 µM	–	76.3 µM	–	–	16.3 µM	5.8 µM and 35.1 µM	–	32.7 µM	–	50.9 µM	13.4 µM	31.9 µM

Compound	GI50 [1]	TGI [1]	GI50 [2]	TGI [2]	GI50 [3]	TGI [3]	GI50 [4]	TGI [4]	GI50 [5]	TGI [5]	GI50 [6]	TGI [6]	GI50 [7]	TGI [7]	GI50 [8]	TGI [8]	GI50 [9]	TGI [9]	GI50 [10]	TGI [10]
O=C(Nc1cccc(NC(=O)Nc2cc(C(F)(F)F)ccc2Cl)c1)Nc1cc(C(F)(F)F)ccc1Cl	1.48 µM	7.63 µM	–	–	2.3 µM	22 µM	0.983 µM	11.2 µM	4.11 µM	17.8 µM	1.77 µM	14 µM	2.35 µM	16.8 µM	2.41 µM	22.8 µM	1.4 µM	8.23 µM	3.28 µM	> 100 µM
C[CH2][Sn]([CH2]C)([O]C(=O)C(OC(C)=O)c1ccccc1)[O]C(=O)C(OC(C)=O)c1ccccc1 (configuration not stated)	19.8 µM	35.6 µM	24.3 µM	> 100 µM	26.6 µM	77.8 µM	17.3 µM	31.1 µM	94.7 µM	> 100 µM	52 µM	> 100 µM	–	–	92.6 µM	> 100 µM	> 100 µM	> 100 µM	16.3 µM	36.8 µM
COc1ccc(/C=C2\S/C(=N/Nc3nc(-c4ccccc4)cs3)NC2=O)cc1OC	–	–	–	–	–	75.7 µM	–	> 100 µM	–	> 100 µM	–	89.9 µM	–	74.5 µM	–	41.6 µM	–	52.6 µM	–	> 100 µM
C=C1c2[nH]c3c([N+](=O)[O-])c(OC)ccc3c2CCN1C(C)=O	–	> 100 µM	–	> 100 µM	–	–	–	> 100 µM	–	–	–	> 100 µM	–	> 100 µM	–	> 100 µM	–	–	–	> 100 µM
Cc1[nH]c2ccccc2c1C1Cc2ccccc2N1C(=O)/C=C/C(=O)O (configuration not stated)	–	> 100 µM	–	> 100 µM	–	–	–	> 100 µM	–	–	–	> 100 µM	–	> 100 µM	–	> 100 µM	–	–	–	> 100 µM
O=C(NN1C(=O)CSC12CCCC2)c1[nH]c2ccc(Br)cc2c1-c1ccccc1	> 100 µM	> 100 µM	–	–	32.5 µM	> 100 µM	> 100 µM	> 100 µM	> 100 µM	> 100 µM	54.1 µM	> 100 µM	19.7 µM	> 100 µM	26.7 µM	> 100 µM	38.6 µM	> 100 µM	74.6 µM	> 100 µM
COc1ccc(/C=C\c2cc(OC)c(OC)c(OC)c2)cc1OC	–	40.4 µM	0.0204 µM	0.277 µM and 0.0612 µM	–	> 100 µM	0.763 µM	40.4 µM and 85 µM	–	–	0.32 µM	40.4 µM and 83.6 µM	0.036 µM	40.4 µM and > 100 µM	0.0482 µM	40.4 µM and 24.4 µM	–	> 100 µM	0.0472 µM	40.4 µM and > 100 µM
C[C@]12CC[C@H]3[C@@H](CC[C@]4(O)C[C@@H](O)CC[C@]34/C=N/O)[C@@]1(O)CC[C@@H]2C1=COC(=O)C1	–	0.583 µM	–	–	–	–	–	0.67 µM	–	0.111 µM	–	2.05 µM	–	0.919 µM	–	0.165 µM	–	0.532 µM	–	–
O=C(c1ccccc1)c1cccc(C(=O)c2ccccc2)c1	–	> 100 µM	–	> 100 µM	–	–	–	> 100 µM	–	–	–	> 100 µM	–	> 100 µM	–	> 100 µM	–	–	–	> 100 µM
Cc1ccc(N2C(=O)C3C=CC(n4[nH]c(=O)n(Cc5ccccc5)c4=O)CC3C2=O)cc1 (configuration not stated)	–	> 100 µM	–	> 100 µM	–	–	–	> 100 µM	–	–	–	> 100 µM	–	> 100 µM	–	> 100 µM	–	–	–	> 100 µM
O=C(Nc1ccc(Cl)c(Cl)c1)O/N=C\c1c(Cl)ccc([N+](=O)[O-])c1Cl	10.6 µM	22.8 µM	0.878 µM	5.04 µM	1.56 µM	3.41 µM	1.65 µM	3.33 µM	1.73 µM	3.23 µM	7.6 µM	20.6 µM	–	–	1.49 µM	3.25 µM	1.58 µM	3.74 µM	–	–
CCCOC(=O)N1CCN(/[N+]([O-])=N/Oc2ccc([N+](=O)[O-])cc2[N+](=O)[O-])CC1	–	–	0.373 µM	> 100 µM	2.29 µM	4.83 µM	1.84 µM	3.79 µM	1.81 µM	3.53 µM	5.08 µM	18.7 µM	2.26 µM	5.59 µM	0.301 µM	1.17 µM	4.14 µM	15.1 µM	–	–
O=CC1CCCc2ccccc21 (configuration not stated)	–	> 100 µM	–	> 100 µM	–	–	–	> 100 µM	–	–	–	> 100 µM	–	> 100 µM	–	> 77.2 µM	–	–	–	> 56.6 µM
COc1cc(C(=O)NC2CCN(C)CC2)c(F)cc1Nc1ncc2c(n1)N(C1CCCC1)CC(F)(F)C(=O)N2C	< 0.0196 µM	0.14 µM	< 0.01 µM	–	–	–	< 0.0378 µM	14.4 µM	0.0179 µM	11.2 µM	< 0.0281 µM	17.1 µM	< 0.0237 µM	13.7 µM	< 0.0142 µM	12 µM	< 0.0201 µM	18.3 µM	< 0.01 µM	11.5 µM
COC(=O)C1=CC2C(=O)OC1CC2C#N (configuration not stated)	–	> 100 µM	–	> 100 µM	–	–	–	> 100 µM	–	–	–	> 100 µM	–	> 100 µM	–	> 100 µM	–	–	–	> 100 µM
CC1=C2C(=CC(C)(C)C2O)C(=O)C(C)(O)C12CC2 (configuration not stated)	–	0.0822 µM	–	0.128 µM	–	–	–	0.0373 µM	–	–	–	0.17 µM	–	0.0324 µM	–	0.188 µM	–	–	–	0.0752 µM
